Measurements: ChEMBL document CHEMBL5291721, “A preclinical secondary pharmacology resource illuminates target-adverse drug reaction associations of marketed drugs” (Nat Commun, 2023)

Assays:
Adenosine receptor A3 = target: T1, Adenosine receptor A3 (Homo sapiens, UniProt P0DMS8)
T1 sequence (P0DMS8 whole entry): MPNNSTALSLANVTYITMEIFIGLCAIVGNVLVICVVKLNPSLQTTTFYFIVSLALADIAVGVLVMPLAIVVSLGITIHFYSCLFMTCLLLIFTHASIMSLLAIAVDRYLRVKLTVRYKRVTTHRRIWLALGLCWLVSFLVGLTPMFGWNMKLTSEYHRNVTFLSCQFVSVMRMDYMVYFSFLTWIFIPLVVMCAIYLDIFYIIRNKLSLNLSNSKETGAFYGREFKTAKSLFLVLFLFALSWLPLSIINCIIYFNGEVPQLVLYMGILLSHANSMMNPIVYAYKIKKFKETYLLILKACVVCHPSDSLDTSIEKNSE

[1] = target: T2, Alpha-2A adrenergic receptor (Homo sapiens, UniProt P08913); type: functional, cell-based
T2 sequence (P08913 whole entry): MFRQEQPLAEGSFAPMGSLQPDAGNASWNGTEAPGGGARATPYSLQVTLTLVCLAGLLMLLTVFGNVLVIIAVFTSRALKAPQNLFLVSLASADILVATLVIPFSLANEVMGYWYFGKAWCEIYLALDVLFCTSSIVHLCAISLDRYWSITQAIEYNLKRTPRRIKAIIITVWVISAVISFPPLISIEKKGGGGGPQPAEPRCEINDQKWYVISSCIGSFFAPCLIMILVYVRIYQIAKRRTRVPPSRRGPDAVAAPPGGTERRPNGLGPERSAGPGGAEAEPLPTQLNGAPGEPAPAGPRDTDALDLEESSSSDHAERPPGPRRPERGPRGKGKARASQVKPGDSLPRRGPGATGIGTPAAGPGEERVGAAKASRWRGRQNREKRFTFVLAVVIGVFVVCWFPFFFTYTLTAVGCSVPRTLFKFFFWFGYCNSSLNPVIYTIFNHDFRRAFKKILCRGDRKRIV

[2] = target: T2, Alpha-2A adrenergic receptor; type: functional, cell-based; remark: listed apart in the source
[3] = target: T3, Alpha-2B adrenergic receptor (Homo sapiens, UniProt P18089)
T3 sequence (P18089 whole entry): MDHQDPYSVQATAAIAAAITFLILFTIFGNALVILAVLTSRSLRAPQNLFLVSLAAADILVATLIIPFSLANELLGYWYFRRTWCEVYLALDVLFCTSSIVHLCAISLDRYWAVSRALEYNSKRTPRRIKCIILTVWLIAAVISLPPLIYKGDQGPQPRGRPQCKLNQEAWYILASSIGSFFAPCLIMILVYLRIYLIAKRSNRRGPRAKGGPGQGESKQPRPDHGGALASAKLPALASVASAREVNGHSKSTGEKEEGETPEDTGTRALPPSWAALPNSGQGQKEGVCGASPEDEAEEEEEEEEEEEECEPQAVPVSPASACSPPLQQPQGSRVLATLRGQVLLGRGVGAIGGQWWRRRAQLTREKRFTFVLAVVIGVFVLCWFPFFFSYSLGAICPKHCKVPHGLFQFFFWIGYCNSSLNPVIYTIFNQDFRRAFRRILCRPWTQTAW

[4] = target: T4, Muscarinic acetylcholine receptor M1 (Homo sapiens, UniProt P11229); type: functional
T4 sequence (P11229 whole entry): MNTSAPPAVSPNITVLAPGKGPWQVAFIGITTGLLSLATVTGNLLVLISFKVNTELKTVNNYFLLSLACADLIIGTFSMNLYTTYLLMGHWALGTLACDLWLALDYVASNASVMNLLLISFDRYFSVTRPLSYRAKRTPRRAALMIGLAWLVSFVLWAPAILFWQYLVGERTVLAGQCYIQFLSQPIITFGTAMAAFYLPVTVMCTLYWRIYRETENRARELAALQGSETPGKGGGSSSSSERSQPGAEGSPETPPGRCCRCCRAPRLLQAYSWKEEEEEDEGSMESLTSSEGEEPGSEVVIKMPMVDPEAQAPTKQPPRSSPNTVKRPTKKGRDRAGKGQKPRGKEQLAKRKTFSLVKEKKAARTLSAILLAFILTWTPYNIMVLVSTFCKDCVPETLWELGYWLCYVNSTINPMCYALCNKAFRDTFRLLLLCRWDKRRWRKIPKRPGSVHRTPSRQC

D(1A) dopamine receptor = D(1A) dopamine receptor (Homo sapiens, UniProt P21728); type: functional, cell-based
D(1A) dopamine receptor, sequence (P21728 whole entry): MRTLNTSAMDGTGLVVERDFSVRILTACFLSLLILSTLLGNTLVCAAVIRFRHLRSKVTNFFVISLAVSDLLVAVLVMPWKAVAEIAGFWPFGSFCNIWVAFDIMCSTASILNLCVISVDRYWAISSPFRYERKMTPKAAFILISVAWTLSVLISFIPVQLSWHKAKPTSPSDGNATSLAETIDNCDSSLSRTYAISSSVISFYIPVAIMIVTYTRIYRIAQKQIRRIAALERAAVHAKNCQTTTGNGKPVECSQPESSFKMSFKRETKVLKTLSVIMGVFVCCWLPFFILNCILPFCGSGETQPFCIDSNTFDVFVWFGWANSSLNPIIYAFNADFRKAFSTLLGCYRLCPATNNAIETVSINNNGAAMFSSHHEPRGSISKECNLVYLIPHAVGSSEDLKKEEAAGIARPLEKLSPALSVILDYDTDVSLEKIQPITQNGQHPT

[5] = target: Gamma-aminobutyric acid receptor subunit alpha-1 (Rattus norvegicus, UniProt P62813); type: functional
Gamma-aminobutyric acid receptor subunit alpha-1, sequence (P62813 whole entry): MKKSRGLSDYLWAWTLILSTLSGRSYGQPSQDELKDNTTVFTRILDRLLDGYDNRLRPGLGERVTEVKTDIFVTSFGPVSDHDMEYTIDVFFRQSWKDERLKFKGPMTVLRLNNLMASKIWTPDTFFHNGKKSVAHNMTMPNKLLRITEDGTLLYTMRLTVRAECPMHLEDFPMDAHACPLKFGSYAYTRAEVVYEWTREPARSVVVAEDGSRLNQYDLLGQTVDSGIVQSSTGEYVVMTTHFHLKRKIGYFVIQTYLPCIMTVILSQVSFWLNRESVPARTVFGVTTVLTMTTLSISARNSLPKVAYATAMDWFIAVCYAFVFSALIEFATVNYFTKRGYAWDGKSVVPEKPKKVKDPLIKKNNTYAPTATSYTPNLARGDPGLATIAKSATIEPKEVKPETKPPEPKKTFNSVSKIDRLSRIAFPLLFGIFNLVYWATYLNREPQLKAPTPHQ

Melanocortin receptor 3 = Melanocortin receptor 3 (Homo sapiens, UniProt P41968)
Melanocortin receptor 3, sequence (P41968 whole entry): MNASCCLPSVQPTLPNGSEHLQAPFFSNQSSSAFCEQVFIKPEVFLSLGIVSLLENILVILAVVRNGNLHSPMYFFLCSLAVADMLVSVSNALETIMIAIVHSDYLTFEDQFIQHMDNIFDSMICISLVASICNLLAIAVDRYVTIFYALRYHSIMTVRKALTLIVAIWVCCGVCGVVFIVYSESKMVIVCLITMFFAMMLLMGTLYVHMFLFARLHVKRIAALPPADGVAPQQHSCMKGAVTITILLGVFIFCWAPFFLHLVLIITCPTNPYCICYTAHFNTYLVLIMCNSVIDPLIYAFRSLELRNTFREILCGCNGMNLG

[6] = target: 3',5'-cyclic-AMP phosphodiesterase 4A (Homo sapiens, UniProt P27815); type: functional
3',5'-cyclic-AMP phosphodiesterase 4A, sequence (P27815 whole entry): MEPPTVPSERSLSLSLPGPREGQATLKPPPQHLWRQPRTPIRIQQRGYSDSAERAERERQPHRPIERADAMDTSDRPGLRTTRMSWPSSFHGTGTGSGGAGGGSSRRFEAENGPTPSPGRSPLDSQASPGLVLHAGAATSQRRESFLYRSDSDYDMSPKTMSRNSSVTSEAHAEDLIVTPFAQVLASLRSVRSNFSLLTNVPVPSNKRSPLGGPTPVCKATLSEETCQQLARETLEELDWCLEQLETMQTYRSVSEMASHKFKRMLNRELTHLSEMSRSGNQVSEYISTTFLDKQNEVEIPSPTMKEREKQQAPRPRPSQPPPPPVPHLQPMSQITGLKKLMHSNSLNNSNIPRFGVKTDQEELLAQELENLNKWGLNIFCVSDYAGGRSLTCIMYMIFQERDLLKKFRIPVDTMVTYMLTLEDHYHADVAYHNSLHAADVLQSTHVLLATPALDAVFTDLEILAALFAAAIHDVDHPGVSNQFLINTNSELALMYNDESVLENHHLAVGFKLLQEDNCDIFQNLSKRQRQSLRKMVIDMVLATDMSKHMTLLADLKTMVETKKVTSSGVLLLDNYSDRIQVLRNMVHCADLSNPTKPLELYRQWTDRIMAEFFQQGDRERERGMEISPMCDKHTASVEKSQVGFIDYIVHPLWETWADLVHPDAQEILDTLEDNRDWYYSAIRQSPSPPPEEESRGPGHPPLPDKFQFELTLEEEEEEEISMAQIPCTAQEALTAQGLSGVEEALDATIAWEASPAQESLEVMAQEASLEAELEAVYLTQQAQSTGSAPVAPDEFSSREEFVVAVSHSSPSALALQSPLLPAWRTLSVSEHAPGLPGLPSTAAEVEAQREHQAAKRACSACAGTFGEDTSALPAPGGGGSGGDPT

[7] = target: T5, Amine oxidase [flavin-containing] A (Homo sapiens, UniProt P21397); type: functional
T5 sequence (P21397 whole entry): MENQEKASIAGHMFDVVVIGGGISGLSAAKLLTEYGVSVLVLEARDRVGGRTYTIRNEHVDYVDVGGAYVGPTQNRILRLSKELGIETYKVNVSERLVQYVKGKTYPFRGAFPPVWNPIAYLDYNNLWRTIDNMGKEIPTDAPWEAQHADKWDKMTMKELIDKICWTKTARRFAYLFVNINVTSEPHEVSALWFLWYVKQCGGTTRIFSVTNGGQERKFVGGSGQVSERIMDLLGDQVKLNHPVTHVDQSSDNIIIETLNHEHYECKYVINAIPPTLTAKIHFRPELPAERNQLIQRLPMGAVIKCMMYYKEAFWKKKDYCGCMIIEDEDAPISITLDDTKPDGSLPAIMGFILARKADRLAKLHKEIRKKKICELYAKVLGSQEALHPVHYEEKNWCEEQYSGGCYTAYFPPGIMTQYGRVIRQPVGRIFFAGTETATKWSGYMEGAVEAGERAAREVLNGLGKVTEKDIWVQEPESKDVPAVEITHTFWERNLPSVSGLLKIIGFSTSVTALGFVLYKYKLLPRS
Also: assay procedure not described here.

SMILES	AC50 (Adenosine receptor A3)	AC50 [1]	AC50 [2]	AC50 [3]	AC50 [4]	AC50 (D(1A) dopamine receptor)	AC50 [5]	AC50 (Melanocortin receptor 3)	AC50 [6]	AC50 [7]
O=C(Cn1ccnc1[N+](=O)[O-])NCc1ccccc1 [BENZNIDAZOLE]	> 30 µM	> 30 µM	> 30 µM	> 30 µM	> 30 µM	> 30 µM	> 30 µM	> 30 µM	> 30 µM	> 30 µM
O=C(Nc1ccccc1)OCC(CN1CCCCC1)OC(=O)Nc1ccccc1 (stereo not drawn) [DIPERODON]	> 30 µM	> 10 µM	> 10 µM	> 10 µM	> 10 µM	> 10 µM	> 10 µM	> 30 µM	> 30 µM	> 10 µM
Nc1ccc(/N=N/c2ccccc2)c(N)n1 [PHENAZOPYRIDINE]	–	> 30 µM	> 30 µM	3.2 µM	4.1 µM	> 30 µM	> 30 µM	–	22.5 µM	> 30 µM
O=C(O)CCn1c2c(c3ccccc31)C[C@H](NS(=O)(=O)c1ccc(F)cc1)CC2 [RAMATROBAN]	> 30 µM	> 10 µM	> 10 µM	> 10 µM	> 10 µM	> 30 µM	> 10 µM	> 30 µM	> 30 µM	> 10 µM
